Source: patent US20190166840A1, “SUBSTITUTED PYRAZOLINYL DERIVATIVES, PROCESSES FOR THEIR PREPARATION AND THEIR USE AS HERBICIDES AND/OR PLANT GROWTH REGULATORS” (BAYER CROPSCIENCE AKTIENGESELLSCHAFT, priority 2016, published 2019)

Assays:
Type in all cases: in vivo
Details in all cases: application rate 1280 g/ha, scored visually after about 3 weeks
[1] = tested on: Abutilon theophrasti; assay: Pre-emergence herbicidal action, ABUTH
Source text: (§1) Pre-Emergence Herbicidal Action Seeds of mono- and dicotyledonous weed plants or crop plants were placed in sandy loam in wood fibre pots and covered with soil. The formulated compounds of the general formula (I) according to the invention were then applied to the surface of the covering soil in the form of an aqueous suspension or emulsion at an application rate of 600 l of water/ha (converted) with addition of 0.2% wetting agent. After the treatment, the pots were placed in a greenhouse and kept under good growth conditions for the test plants. After about 3 weeks, the effect was scored visually in percent in comparison to untreated controls. For example, 100% activity=the plants have died, 50% herbicidal activity or damage=plants reduced to 50% or plant material reduced by 50%, 0% activity=like control plants. Here, in the biological tests, the compounds of the general formula (I) according to the invention were in each case employed in a formulation, with the numerations of Tables I.1 to I.77 also applying here. Here, the herbicidal action of the compounds of the general formula (I) according to the invention was examined for the following harmful plants: ABUTH=Abutilon theophrasti The respective herbicidal action was in each case determined at the same point in time after application of the formulation in question, i.e. damage of the harmful plant in question in %. Pre-emergence herbicidal action of the compounds of the general formula (I) according to the invention: […]

[2] = tested on: Amaranthus retroflexus; assay: Pre-emergence herbicidal action, AMARE
Source text: as §1, with “AMARE=Amaranthus retroflexus” for “ABUTH=Abutilon theophrasti”

[3] = tested on: Matricaria inodora (=Tripleurospermum maritimum subsp. inodorum); assay: Pre-emergence herbicidal action, MATIN
Source text: as §1, with “MATIN=Matricaria inodora (=Tripleurospermum maritimum subsp. inodorum)” for “ABUTH=Abutilon theophrasti”

[4] = tested on: Viola tricolor; assay: Pre-emergence herbicidal action, VIOTR
Source text: as §1, with “VIOTR=Viola tricolor” for “ABUTH=Abutilon theophrasti”

[5] = tested on: Hordeum murinum; assay: Pre-emergence herbicidal action, HORMU
Source text: as §1, with “HORMU=Hordeum murinum” for “ABUTH=Abutilon theophrasti”

Row | Compound | Pre-emergence herbicidal action ABUTH, damage of the harmful plant [1] [%] | Pre-emergence herbicidal action AMARE, damage of the harmful plant [2] [%] | Pre-emergence herbicidal action MATIN, damage of the harmful plant [3] [%] | Pre-emergence herbicidal action VIOTR, damage of the harmful plant [4] [%] | Pre-emergence herbicidal action HORMU, damage of the harmful plant [5] [%]
1 | CC1=C(C)C(O)N(C2=NN(c3ccccc3)C(C(F)(F)F)C2)C1=O (stereo not drawn) [I.2-1413] | 0 | 60 | 100 | 100 | 60
2 | CC1=C(C)C(O)N(C2=NN(c3ccccn3)C(C)(C)C2)C1=O (stereo not drawn) [I.2-132] | 70 | 60 | 0 | 80 | 0
3 | CCC(=O)OC1C(C)=C(Cl)C(=O)N1C1=NN(C)C(c2ccccc2)C1 (stereo not drawn) [I.24-1126] | 0 | 0 | 90 | 10 | 20
4 | CCC(=O)OC1C(C)=C(C)C(=O)N1C1=NN(c2ccccc2)C(C(F)(F)F)C1 (stereo not drawn) [I.23-1413] | 0 | 50 | 70 | 100 | 30
5 | CCC(=O)OC1C(C)=C(C)C(=O)N1C1=NN(c2ccccn2)C(C)(C)C1 (stereo not drawn) [I.23-132] | 0 | 70 | 40 | 70 | 20
6 | CCC(=O)OC1C(C)=C(C)C(=O)N1C1=NN(c2ccccc2)CC1 (stereo not drawn) [I.23-621] | 0 | 40 | 50 | 70 | 0
